Conditions in all cases: incubation time: 72 h
The test system of test [1] is BT-474. Briefly: drug sensitivity score (DSS), CellTiter-Blue viability (DSS (AUC-based score)); higher = stronger viability inhibition; extreme values may be limits of the assay. The gist of the method:
(§1)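 Each 384-well plate was normalised to two references, 0.1 % DMSO and a positive kill control. Breast cancer cell lines (20 µl suspension) had been seeded onto compound at 5 or 9 concentrations and incubated 72 h, after which viability was read by CellTiter-Blue fluorescence at 560/590 nm. The drug sensitivity score reflects the area under the fitted dose-response curve.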
On the technique in general: The colour change of resazurin is a common sign of viable cells or microbes.

Test [2] concerns BT-549. The description is as above. The gist of the method: as §1
Test [3] deals with CAL-148. The description is as above. Put shortly: as §1
In test [4] the test system is CAL-51. Described as above. The gist of the method: as §1
In test [5] the test system is CAL-85-1. The description is as above. The gist of the method: as §1
In test [6] the test system is DU-4475. The description is as above. The gist of the method: as §1
For test [7], the system named is HCC1937. The test is described as above. Put shortly: as §1
The test system of test [8] is HDQ-P1. Described as above. Put shortly: as §1
The test system of test [9] is Hs578T. Described as above. The gist of the method:
as §1

The test system of test [10] is MDA-MB-231. The test is described as above. Put shortly: as §1
The test system of test [11] is MDA-MB-468. The description is as above. The gist of the method: as §1
Test [12] concerns MFM-223. Described as above. Put shortly: as §1
Test [13] concerns BT-474. Nature of the test: drug sensitivity score (DSS), CellTox Green (DSS (AUC-based score)); higher = stronger drug effect (viability inhibition or cytotoxicity); extreme values may be limits of the assay. The gist of the method: (§2)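 The drug sensitivity score was computed from the area under the fitted dose-response curve. Breast cancer cell lines in 20 µl suspension went into 384-well plates holding compound at 5 concentrations (10-fold steps over a 10,000-fold, compound-specific range) for 72 h of incubation. CellTox Green fluorescence (485/520 nm) was read before CellTiter-Glo luminescence, the latter after 10 min at room temperature, and each plate was normalised to 0.1 % DMSO and a positive kill control.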

Test [14] concerns CAL-120. The test is described as above. Put shortly: as §2
Test [15] concerns CAL-148. Described as above. The gist of the method:
as §2

Test [16] relates to CAL-51. Described as above. Put shortly:
as §2

Test [17] relates to DU-4475. Described as above. Put shortly:
as §2

For test [18], the system named is HCC1143. The description is as above. Put shortly: as §2
In test [19] the test system is HCC1599. The description is as above. Put shortly:
as §2

Test [20] has as its system HCC1937. Described as above. Put shortly:
as §2

The test system of test [21] is HDQ-P1. The test is described as above. The gist of the method:
as §2

Test [22] relates to Hs578T. The test is described as above. Put shortly:
as §2

In test [23] the test system is MCF-10A. Described as above. The gist of the method:
as §2

The test system of test [24] is MDA-MB-436. The description is as above. Put shortly:
as §2

Test [25] has as its system MDA-MB-453. The description is as above. The gist of the method:
as §2

Test [26] relates to MDA-MB-468. Described as above. Put shortly:
as §2

For 9 compounds, drug sensitivity score results are on record in the supplement of paper PMC4862054.

The structures appear in SMILES notation. “And” between values parts separate entries of the source, which are not always exact repeats. Equal values may be shown once.

With `CC(O)(CS(=O)(=O)c1ccc(F)cc1)C(=O)Nc1ccc(C#N)c(C(F)(F)F)c1` (stereo not drawn) [Bicalutamide], the drug sensitivity score in [1], in test [2], in [3], in test [4], in test [5] and in test [6] was 0 in each case. The drug sensitivity score in test [7] turned out to be 0; in [8], 0; in test [9], 0; in test [10] it was 0; in [11], 4.86e-06; in test [12], 0. The drug sensitivity score in [13], in test [14], in [15], in test [16], in test [17] and in [18] was 0 each time. The drug sensitivity score in test [19], in test [20], in [21], in [22], in test [23] and in test [24] was 0 in each case. Further, the drug sensitivity score in test [25] worked out at 0.
As for `C=CCN(/C=C1/C(=O)O[C@H](COC)[C@@]2(C)C1=C(O)C(=O)C1=C2[C@H](OC(C)=O)C[C@]2(C)C(=O)CC[C@@H]12)CC=C` [Sonolisib], the drug sensitivity score in [13], in test [14], in [15], in test [16], in [17] and in [18] was 0 throughout. For the same compound, the drug sensitivity score in test [19], in test [20], in [21], in [22], in test [23] and in test [24] was 0 each time. Moreover, the drug sensitivity score in test [25] amounted to 0.
Consider `CC[C@H](CO)Nc1nc(NCc2ccccc2)c2ncn(C(C)C)c2n1` [Seliciclib], for which the drug sensitivity score in [13], in test [14], in test [15], in test [16], in test [17] and in test [18] was 0 throughout. Also, the drug sensitivity score was 0 in [19]; 0 in test [20]; 0 in test [21]; 1.26 in test [22]; 0 in test [23]; 0 in [24]. For the same compound, the drug sensitivity score in test [25] and in [26] was 0 each time.
In the case of `O=C(O)CNC(=O)c1c(O)c2ccccc2n(Cc2ccccc2)c1=O` [IOX-2], the drug sensitivity score in test [13], in test [14], in [15], in [16], in test [17] and in test [18] was 0 in each case. The drug sensitivity score is 0 in test [19]; 0 in test [20]; 3.99 in test [21]; 0 in test [22]; 0 in test [23]; 0 in test [24]. Besides, the drug sensitivity score in test [25] came to 1.5; in [26] it was 0.
Regarding `CC1(COc2ccc3c(c2)ncn3-c2ccc3cccc(N4CCC(N)CC4)c3n2)COC1` [Crenolanib], the drug sensitivity score in test [13] came to 5.99; in test [14] it was 0; in test [15], 6.78; in [16] it was 4.42; in [17], 0.612; in test [18] it was 1.14. In addition, the drug sensitivity score was 0 in [19]; 0 in test [20]; 7.06 in [21]; 0 in [22]; 5.3 in test [23]; 18.5 in [24]. Moreover, the drug sensitivity score in test [25] and in test [26] was 0 in each case.
As to `CC[C@H](CO)Nc1nc(NCc2ccccc2)c2ncn(C(C)C)c2n1` [Roscovitine], the drug sensitivity score was 0 in test [1]; 2.4 in [2]; 0 in test [3]; 0 in test [4]; 0 in test [5]; 0 in [6]. Besides, the drug sensitivity score in test [7] turned out to be 0; in test [8], 0; in test [9], 2.74; in test [10], 0; in [11], 0; in [12] it was 0.
As for `CC(C)n1cnc2c(NCCc3ccc(O)cc3)nc(-c3csc4ccccc34)nc21` [StemRegenin 1], the drug sensitivity score in test [13] is 1.03; in test [14], 0; in [15], 0; in [16] it was 0; in test [17], 0; in test [18], 0. Besides, the drug sensitivity score in [19], in [20], in test [21], in test [23], in [24] and in test [25] was 0 throughout. The compound also gave a drug sensitivity score in test [26] of 0.
Regarding `O=C(CCCCCCC(=O)Nc1ccccc1)NO` [Vorinostat], the drug sensitivity score in test [1] was 6.34 and 8.1; in [2] it was 4.56 and 4.64; in test [3], 5.26 and 4.8; in test [4] it was 0.68 and 0.982; in test [5], 4.59 and 3.98; in test [7] it was 6.22 and 7.75. For the same compound, the drug sensitivity score in test [8] was 3.82 and 8.64; in test [9], 5.57 and 5.8; in test [10], 5.31 and 5.33; in test [11], 6.66 and 5.72; in test [12] it was 7.1 and 6.77; in test [13] it was 2.68. The drug sensitivity score came to 2.58 in test [14]; 1.45 in test [15]; 6.5 in [16]; 0 in test [17]; 1.23 in test [18]; 0 in test [19]. In addition, the drug sensitivity score in [20] was 0; in test [21], 0; in test [22], 4.59; in test [23], 0; in [24], 0; in [25], 0. This compound showed a drug sensitivity score in test [26] of 2.22.
As to `CN(C)C(=N)NC(=N)N` [Metformin], the drug sensitivity score in test [13] was 0; in test [14], 0; in [15] it was 0; in test [16] it was 8.43; in test [17], 0; in test [19], 1.75. The drug sensitivity score turned out to be 0 in [20]; 0 in [21]; 4.84 in [22]; 0 in test [23]; 0 in test [24]; 0 in [25]. Moreover, in test [26], the drug sensitivity score was determined as 14.1.
